In EP4818172A1, “ASCORBIC ACID DERIVATIVES AND COSMETIC CONTAINING SAME” (Seiwa Kasei Co., Ltd., priority 2023, dated 2025):

Columns and labels:
[1] = test system: Normal human dermal fibroblasts (NHDF); assay: Hyaluronic acid production promoting effect (ELISA of supernatant); assay type: cell-based; conditions: sample at 10 mM or less in serum-free D-MEM, cultured 48 hours, % of control group (100%), N=3
Protocol: Normal human dermal fibroblasts (NHDF) were prepared in D-MEM containing 5% (v/v) fetal bovine serum to a cell density of 2.5 × 10^4 cells/well, and then pre-incubated on a 96-well plate for 24 hours. After removing the medium, samples prepared in serum-free D-MEM were added to each well and cultured for 48 hours. After the culture was completed, the amount of hyaluronic acid in the supernatant was quantified by ELISA. Measurements were performed in triplicate (N=3).
(§1) The amount of hyaluronic acid produced when the sample was measured at a concentration of 10 mM or less was compared with that of the control group, and the results (% values when the control group is set to 100%) are shown in Tables 18 to 20 based on the following criteria. • <100%: ± • 100-120%: + • 120%<: ++ [Table 18]

[2] = test system: Normal human epidermal keratinocytes; assay: Antioxidant effect: ROS production inhibition after H2O2 (DCFHDA probe); assay type: cell-based; conditions: sample at 10 mM or less, 24 hours, then 0.2 mM H2O2 for 2 hours, N=4
Protocol: Normal human epidermal keratinocytes were seeded onto a 96-well plate using KG2 medium at a cell density of 2.0 × 10^4 cells/well. After 24 hours of pre-incubation, samples adjusted to a predetermined concentration in KG2 medium were added to each well. After 24 hours of incubation, the medium was removed, followed by washing with HBSS(-) and the incorporation of the ROS-reactive fluorescent probe DCFHDA for 30 minutes. The cells were again washed with HBSS(-), treated with 0.2 mM H2O2, and incubated for 2 hours. The fluorescence intensity was measured, and the amount of ROS produced per unit protein was calculated by dividing the fluorescence intensity by the amount of protein quantified by the BCA method, resulting in an analytical value of 1. Furthermore, the amount of ROS production calculated without adding the sample adjusted to a predetermined concentration using the above test method was set to analytical value 2; and the amount of ROS production calculated without adding the sample or 0.2 mM H2O2 was set to analytical value 3.
ROS production inhibition rate (%) was calculated using the following formula. The higher the ROS production inhibition rate, the greater the antioxidant effect can be evaluated to be.
ROS production inhibition rate (%) = [(analysis value 2) - (analysis value 1)] / [(analysis value 2) - (analysis value 3)] × 100
The ROS production inhibition rate when the sample was measured at a concentration of 10 mM or less was evaluated as follows. Note that the measurement was performed in N=4. • <20%: + • 20-40%: ++ • 40%<: +++ [Table 21]

[3] = Stability test -1: residual rate of 1% aqueous solutions at pH 3 to 9 on storage; assay type: physicochemical; conditions: 1% aqueous solution
[4] = Stability test -1: odor and coloration scored by 10 panelists; assay type: physicochemical; conditions: Test Example 1, aqueous solution, total score of 10 panelists
Protocol: For each of the samples of Synthesis Examples 1 to 6, 1% aqueous solutions were adjusted to pH 3, 5, 7, 8, and 9 with a dilute potassium hydroxide aqueous solution, and then placed in 50 mL screw tubes and • 2: Color changes compared to immediately after preparation. • 1: Strongly colored compared to immediately after preparation. Based on the results of the above evaluation, the following classification was made: • ○: Total score of 10 panelists is 25 or more • △: Total score of 10 panelists is 16-24 • ×: The total score of 10 panelists is 15 or less [Table 10]

[5] = test system: Normal human dermal fibroblasts; assay: Collagen production promoting effect (ELISA of free collagen in supernatant); assay type: cell-based; conditions: sample at 10 mM or less, cultured 48 hours, % of control group (100%), N=3
Protocol: Normal human dermal fibroblasts were prepared in D-MEM containing 5% (v/v) fetal bovine serum to a cell density of 2.5 × 10^4 cell s /well, and then pre-incubated for 24 hours on a 96-well plate. After removing the medium, samples prepared to a predetermined concentration in D-MEM containing 5% (v/v) fetal bovine serum were added to each well and cultured for 48 hours. After the culture was completed, the amount of free collagen in the supernatant was quantified by ELISA. Measurements were performed in triplicate (N=3).
as §1, with “collagen” for “hyaluronic acid”, “was” for “is”, “Table 17” for “Tables 18 to 20”, “100-140%:” for “100-120%:”, “140%<:” for “120%<:”, “17]” for “18]”

Row | Residual Rate After 2 weeks ([3]; pH3, stored at 50°C) | Residual Rate After 4 weeks ([3]; pH3, stored at 50°C) | Residual Rate After 2 weeks ([3]; pH5, stored at 50°C) | Residual Rate After 4 weeks ([3]; pH5, stored at 50°C) | Residual Rate After 2 weeks ([3]; pH7, stored at 50°C) | Residual Rate After 4 weeks ([3]; pH7, stored at 50°C) | Residual Rate After 2 weeks ([3]; pH8, stored at 50°C) | Residual Rate After 4 weeks ([3]; pH8, stored at 50°C) | Residual Rate After 2 weeks ([3]; pH9, stored at 50°C) | Residual Rate After 4 weeks ([3]; pH9, stored at 50°C) | SMILES | Hyaluronic acid production-promoting effect [1] | Antioxidant effect (ROS production inhibition rate) [2] | Coloration After 2 weeks [4] | Odor After 2 weeks [4] | Coloration After 4 weeks [4] | Odor After 4 weeks [4] | Collagen production-promoting effect [5]
1 | ⊚ | ⊚ | ⊚ | ⊚ | ○ | Δ | Δ | × | × | × | O=C1OC(C(O)CO)C2=C1OCCO2 (stereo not shown) [synthesis example 1, 2,3-O-(1,2-ethanediyl) ascorbic acid] | + (100-120%) | – | ○ (Total score of 10 panelists is 25 or more) | ○ (Total score of 10 panelists is 25 or more) | Δ | ○ (Total score of 10 panelists is 25 or more) | + (100-140%)
2 | ⊚ | ⊚ | ⊚ | ⊚ | ⊚ | ⊚ | ⊚ | ○ | ○ | Δ | O=C1OC(C(O)CO)C2=C1OCCCO2 (stereo not shown) [synthesis example 2, 2,3-O-(1,3-propanediyl) ascorbic acid] | ++ (120%<) | – | ○ (Total score of 10 panelists is 25 or more) | ○ (Total score of 10 panelists is 25 or more) | ○ (Total score of 10 panelists is 25 or more) | Δ | ++ (140%<)

Second part, the molecule before the results:

Row | SMILES | Residual Rate After 2 weeks ([3]; pH3, stored at 50°C) | Residual Rate After 4 weeks ([3]; pH3, stored at 50°C) | Residual Rate After 2 weeks ([3]; pH5, stored at 50°C) | Residual Rate After 4 weeks ([3]; pH5, stored at 50°C) | Residual Rate After 2 weeks ([3]; pH7, stored at 50°C) | Residual Rate After 4 weeks ([3]; pH7, stored at 50°C) | Residual Rate After 2 weeks ([3]; pH8, stored at 50°C) | Residual Rate After 4 weeks ([3]; pH8, stored at 50°C) | Residual Rate After 2 weeks ([3]; pH9, stored at 50°C) | Residual Rate After 4 weeks ([3]; pH9, stored at 50°C) | Hyaluronic acid production-promoting effect [1] | Antioxidant effect (ROS production inhibition rate) [2] | Coloration After 2 weeks [4] | Odor After 2 weeks [4] | Coloration After 4 weeks [4] | Odor After 4 weeks [4] | Collagen production-promoting effect [5]
3 | O=C1OC2C(O)COC23OCCCCOC13 (stereo not shown) [synthesis Example 33, 4-hydroxy-2,6,9,14-tetraoxatricyclo [6.6.0.0^1.5] tetradecan-7-one] | – | – | – | – | – | – | – | – | – | – | + (100-120%) | ++ (20-40%) | – | – | – | – | –
4 | O=C1OC2C(O)COC23OCCCOC13 (stereo not shown) [synthesis Example 34, 4-hydroxy-2,6,9,13-tetraoxatricyclo [6.5.0.0^1.5] tridecan-7-one] | – | – | – | – | – | – | – | – | – | – | + (100-120%) | ++ (20-40%) | – | – | – | – | –
5 | O=C1OC(C(O)CO)C2=C1OCCCCO2 (stereo not shown) [synthesis example 3, 2,3-O-(1,4-butanediyl) ascorbic acid] | ⊚ | ⊚ | ⊚ | ⊚ | ⊚ | ⊚ | ⊚ | ○ | ○ | Δ | + (100-120%) | – | ○ (Total score of 10 panelists is 25 or more) | ○ (Total score of 10 panelists is 25 or more) | ○ (Total score of 10 panelists is 25 or more) | ○ (Total score of 10 panelists is 25 or more) | + (100-140%)
6 | O=C1OC(C(O)CO)C2=C1OCC(O)CO2 (stereo not shown) [synthesis example 4, 2,3-O-(2-hydroxypropane-1,3-diyl) ascorbic acid] | ⊚ | ⊚ | ⊚ | ⊚ | ○ | ○ | ○ | Δ | ○ | Δ | ++ (120%<) | – | ○ (Total score of 10 panelists is 25 or more) | ○ (Total score of 10 panelists is 25 or more) | ○ (Total score of 10 panelists is 25 or more) | ○ (Total score of 10 panelists is 25 or more) | + (100-140%)
7 | O=C1OC(C(O)CO)C2=C1OC(CO)CO2 (stereo not shown) [synthesis example 5, 2,3-O-(1-hydroxymethyl-1,2-ethanediyl) ascorbic acid] | ⊚ | ⊚ | ⊚ | ⊚ | ○ | Δ | ○ | Δ | ○ | Δ | + (100-120%) | – | ○ (Total score of 10 panelists is 25 or more) | ○ (Total score of 10 panelists is 25 or more) | ○ (Total score of 10 panelists is 25 or more) | ○ (Total score of 10 panelists is 25 or more) | + (100-140%)
8 | O=C1OC(C(O)CO)C2=C1OCC1(COC1)CO2 (stereo not shown) [synthesis example 6, 2,3-O-(3,3-dimethyleneoxetane) ascorbic acid] | ⊚ | ⊚ | ⊚ | ⊚ | ○ | ○ | ○ | Δ | ○ | Δ | ++ (120%<) | – | ○ (Total score of 10 panelists is 25 or more) | ○ (Total score of 10 panelists is 25 or more) | ○ (Total score of 10 panelists is 25 or more) | ○ (Total score of 10 panelists is 25 or more) | ++ (140%<)
